Drawing on ChEMBL document CHEMBL1152749, “Haemolytic activity, cytotoxicity and membrane cell permeabilization of semi-synthetic and natural lupane- and oleanane-type saponins” (Bioorg Med Chem, 2009), this text covers HC50 and IC50 for seven compounds.

Data set [1] can be described thus: Toxicity in sheep erythrocytes assessed as induction of hemolysis. Type of data set: cell-based, Ovis aries, Erythrocyte. Conditions: read-out: HD50 (the source's name).
Data set [2] concerns A549. Nature of the data set: Cytotoxicity against human A549 cells after 48 hrs by resazurin reduction test. The format is functional, cell-based. The conditions noted are these: A549, 48 h.
The subject of data set [3] is DLD-1. Nature of the data set: Cytotoxicity against human DLD1 cells after 48 hrs by resazurin reduction test. The format is functional, cell-based. Conditions: DLD-1, 48 h.
Data set [4] is described as follows: Cytotoxicity against human WS1 cells after 48 hrs by resazurin reduction test. Type of data set: cell-based. The conditions noted are these: WS1, 48 h.
For data set [5], the system named is A549. Briefly: Cell membrane permeabilization in human A549 cells assessed as drug level causing decrease in calcein fluorescence. The format is ADME, cell-based.
For data set [6], the system named is DLD-1. Nature of the data set: Cell membrane permeabilization in human DLD1 cells assessed as drug level causing decrease in calcein fluorescence. The format is ADME, cell-based.
Data set [7] is described as follows: Cell membrane permeabilization in human WS1 cells assessed as drug level causing decrease in calcein fluorescence. Type of data set: ADME, cell-based.

pIC50: −log10 of the molar value.

In the case of `C=C(C)[C@@H]1CC[C@]2(CO)CC[C@]3(C)[C@H](CC[C@@H]4[C@@]5(C)CC[C@H](O[C@@H]6O[C@H](CO)[C@@H](O)[C@H](O)[C@H]6O)C(C)(C)[C@@H]5CC[C@]43C)[C@@H]12`, the HC50 in data set [1] is above 100 µM. The pIC50 with A549 [2] is below 4.00; in the data set on DLD-1 [3], below 4.00; in data set [4], below 4.00; in the data set with A549 [5], below 3.70; with DLD-1 [6], below 3.70; in data set [7], below 3.70.
On to `C=C(C)[C@@H]1CC[C@]2(C(=O)O)CC[C@]3(C)[C@H](CC[C@@H]4[C@@]5(C)CC[C@H](O[C@@H]6OC[C@H](O)[C@H](O)[C@H]6O)C(C)(C)[C@@H]5CC[C@]43C)[C@@H]12`, for which, in data set [1], the HC50 was above 100 µM. For the same compound, the pIC50 was 4.92 in the data set with A549 [2]; 4.96 in the data set on DLD-1 [3]; 4.72 in data set [4]; below 3.70 with A549 [5]; below 3.70 with DLD-1 [6]; below 3.70 in data set [7].
Regarding `C[C@@H]1O[C@@H](O[C@H]2[C@H](O[C@H]3CC[C@@]4(C)[C@@H](CC[C@]5(C)[C@@H]4CC=C4[C@@H]6CC(C)(C)CC[C@]6(C(=O)O)CC[C@]45C)[C@]3(C)CO)OC[C@H](O)[C@@H]2O)[C@H](O)[C@H](O)[C@H]1O` [ALPHA-HEDERIN], the HC50 in data set [1] came out at 10 µM. Also, the pIC50 with A549 [2] is 4.48; in the data set on DLD-1 [3], 4.22; in data set [4], 4.52; with A549 [5], 4.55; in the data set with DLD-1 [6], 4.42; in data set [7] it was 4.62.
`C=C(C)[C@@H]1CC[C@]2(CO)CC[C@]3(C)[C@H](CC[C@@H]4[C@@]5(C)CC[C@H](O[C@@H]6OC[C@H](O)[C@H](O)[C@H]6O)C(C)(C)[C@@H]5CC[C@]43C)[C@@H]12`: in data set [1], the HC50 is above 100 µM. The pIC50 with A549 [2] was below 4.00; in the data set on DLD-1 [3], below 4.00; in data set [4], below 4.00; in the data set with A549 [5], below 3.70; with DLD-1 [6], below 3.70; in data set [7] it was below 3.70.
Turning to `C=C(C)[C@@H]1CC[C@]2(C(=O)O)CC[C@]3(C)[C@H](CC[C@@H]4[C@@]5(C)CC[C@H](O[C@@H]6O[C@H](CO)[C@@H](O)[C@H](O)[C@H]6O)C(C)(C)[C@@H]5CC[C@]43C)[C@@H]12`, the HC50 in data set [1] was above 100 µM. The pIC50 is below 4.00 with A549 [2]; 4.49 with DLD-1 [3]; below 4.00 in data set [4]; below 3.70 in the data set on A549 [5]; below 3.70 in the data set on DLD-1 [6]; below 3.70 in data set [7].
`C=C(C)[C@@H]1CC[C@]2(C(=O)O[C@@H]3O[C@H](CO)[C@@H](O)[C@H](O)[C@H]3O)CC[C@]3(C)[C@H](CC[C@@H]4[C@@]5(C)CC[C@H](O[C@@H]6OC[C@H](O)[C@H](O)[C@H]6O[C@@H]6O[C@@H](C)[C@H](O)[C@@H](O)[C@H]6O)C(C)(C)[C@@H]5CC[C@]43C)[C@@H]12`: the HC50 in data set [1] is above 100 µM. Moreover, the pIC50 was below 4.30 with A549 [2]; below 4.30 with DLD-1 [3]; below 4.30 in data set [4]; below 3.70 in the data set on A549 [5]; below 3.70 in the data set on DLD-1 [6]; below 3.70 in data set [7].
Consider `CC1(C)CC[C@]2(C(=O)O)CC[C@]3(C)C(=CC[C@@H]4[C@@]5(C)CC[C@H](O)C(C)(C)[C@@H]5CC[C@]43C)[C@@H]2C1` [OLEANOLIC_ACID], for which, in data set [1], the HC50 is above 100 µM. Besides, the negative-log IC50 (pIC50) in the data set with A549 [2] is 4.57; in the data set on DLD-1 [3], below 4.00; in data set [4] it was below 4.00; with A549 [5] it was below 3.70; in the data set on DLD-1 [6], below 3.70; in data set [7], below 3.70.
